# In patent US20230089073A1 (Carmot Therapeutics, Inc., priority 2021, published 2023):
# Biological target: T1, human GLP-1 receptor (Homo sapiens, UniProt P43220)
# T1 construct: expressed in transfected cells
# Experiment: GLP-1R cAMP Assay
# Type: cell-based
# Conditions: cAMP accumulation in CHO cells stably overexpressing the human GLP-1 receptor; 30 min treatment; HitHunter cAMP kit; read-out: EC50
# Summary of the method: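 Luminescent enzyme-complementation detection of cAMP, read after cell lysis and overnight incubation, with dose-response curve fitting. Stimulation lasted 30 min, using 20-point triplicate dosing on CHO cells (10,000 per well) stably overexpressing human GLP-1R.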
# T1 sequence (P43220 24-463): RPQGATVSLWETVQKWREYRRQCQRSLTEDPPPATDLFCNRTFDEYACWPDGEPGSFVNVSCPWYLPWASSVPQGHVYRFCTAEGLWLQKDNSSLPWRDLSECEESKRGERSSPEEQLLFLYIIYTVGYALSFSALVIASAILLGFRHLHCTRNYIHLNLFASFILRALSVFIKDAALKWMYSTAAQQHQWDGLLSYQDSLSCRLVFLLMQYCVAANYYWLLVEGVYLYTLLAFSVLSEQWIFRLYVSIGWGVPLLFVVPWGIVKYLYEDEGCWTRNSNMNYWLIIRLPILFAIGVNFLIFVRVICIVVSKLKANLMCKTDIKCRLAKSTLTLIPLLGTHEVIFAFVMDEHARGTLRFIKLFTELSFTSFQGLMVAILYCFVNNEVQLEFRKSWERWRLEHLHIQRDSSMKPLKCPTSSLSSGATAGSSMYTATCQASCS
row,Structure (SMILES),EC50 [nM]
1,"CCn1cncc1Cn1c(CN2CCC(Oc3cccc(COc4ccc(Cl)cc4Cl)n3)CC2)nc2ccc(C(=O)O)cc21 [Compound 199, 2-{[4-({6-[(2,4-dichlorophenoxy)methyl]pyridin-2-yl}oxy)piperidin-1-yl]methyl}-1-[(1-ethyl-1H-imidazol-5-yl)methyl]-1H-1,3-benzodiazole-6-carboxylic acid]",< 50
2,"O=C(O)c1ccc2nc(CN3CCC(Oc4ccccc4COc4ccc(Cl)cc4Cl)CC3)n(C[C@@H]3CCO3)c2c1 [Compound 284, 2-[(4-{2-[(2,4-dichlorophenoxy)methyl]phenoxy}piperidin-1-yl)methyl]-1-{[(2S)-oxetan-2-yl]methyl}-1H-1,3-benzodiazole-6-carboxylic acid]",> 500
3,"N#Cc1ccccc1Oc1ccccc1C(=O)N1CCN(Cc2nc3ccc(C(=O)O)cc3n2C[C@@H]2CCO2)CC1 [Compound 4, 2-({4-[2-(2-cyanophenoxy)benzoyl]piperazin-1-yl}methyl)-1-{[(2S)-oxetan-2-yl]methyl}-1H-1,3-benzodiazole-6-carboxylic acid]",> 500
4,"CCn1cncc1Cn1c(CN2CCC(Oc3cccc(COc4ccc(Cl)cc4C#N)c3)CC2)nc2ccc(C(=O)O)cc21 [Compound 215, 2-[(4-{3-[(4-chloro-2-cyanophenoxy)methyl]phenoxy}piperidin-1-yl)methyl]-1-[(1-ethyl-1H-imidazol-5-yl)methyl]-1H-1,3-benzodiazole-6-carboxylic acid]",< 50
5,C[C@H]1C[C@@H](Oc2cccc(COc3ccc(C#N)cc3F)c2)CCN1Cc1nc2ccc(C(=O)O)cc2n1C[C@@H]1CCO1 [Compound 319],< 50
6,N#Cc1ccc(OCc2cc(OC3CCN(Cc4nc5ccc(C(=O)O)cc5n4C[C@@H]4CCO4)CC3)ccn2)c(Cl)c1 [Compound 358],< 50
7,"Cc1ccc(Oc2cccc(C(=O)N3CCN(Cc4nc5ccc(C(=O)O)cc5n4C[C@@H]4CCO4)CC3)c2)c(F)c1 [Compound 16, 2-({4-[3-(2-fluoro-4-methylphenoxy)benzoyl]piperazin-1-yl}methyl)-1-{[(2S)-oxetan-2-yl]methyl}-1H-1,3-benzodiazole-6-carboxylic acid]",> 500
8,"CCn1cncc1Cn1c(CN2CCC(Cc3cccc(COc4ccc(Cl)cc4Cl)n3)CC2)nc2ccc(C(=O)O)cc21 [Compound 140, 2-{[4-({6-[(2,4-dichlorophenoxy)methyl]pyridin-2-yl}methyl)piperidin-1-yl]methyl}-1-[(1-ethyl-1H-imidazol-5-yl)methyl]-1H-1,3-benzodiazole-6-carboxylic acid]",< 50
9,"CCn1cncc1Cn1c(CN2CCC(C(F)(F)c3cccc(COc4ccc(Cl)cc4Cl)c3)CC2)nc2ccc(C(=O)O)cc21 [Compound 161, 2-{[4-({3-[(2,4-dichlorophenoxy)methyl]phenyl}difluoromethyl)piperidin-1-yl]methyl}-1-[(1-ethyl-1H-imidazol-5-yl)methyl]-1H-1,3-benzodiazole-6-carboxylic acid]",< 50
10,"CCn1cncc1Cn1c(CN2CC[C@H](Cc3cnc(COc4ccc(Cl)cc4Cl)o3)C[C@@H]2C)nc2ccc(C(=O)O)cc21 [Compound 279, 2-{[(2S,4S)-4-({2-[(2,4-dichlorophenoxy)methyl]-1,3-oxazol-5-yl}methyl)-2-methylpiperidin-1-yl]methyl}-1-[(1-ethyl-1H-imidazol-5-yl)methyl]-1H-1,3-benzodiazole-6-carboxylic acid]",< 50
11,"Cc1ccc(Nc2cccc(C(=O)N3CCN(Cc4nc5ccc(C(=O)O)cc5n4C[C@@H]4CCO4)CC3)c2)cc1 [Compound 25, 2-[(4-{3-[(4-methylphenyl)amino]benzoyl}piperazin-1-yl)methyl]-1-{[(2S)-oxetan-2-yl]methyl}-1H-1,3-benzodiazole-6-carboxylic acid]",> 500
12,"Cc1ccc(Oc2cccc(CN3CCN(Cc4nc5ccc(C(=O)O)cc5n4C[C@@H]4CCO4)CC3)c2)cc1 [Compound 35, 2-[(4-{[3-(4-methylphenoxy)phenyl]methyl}piperazin-1-yl)methyl]-1-{[(2S)-oxetan-2-yl]methyl}-1H-1,3-benzodiazole-6-carboxylic acid]",> 500
13,"CCn1cncc1Cn1c(CN2CCC(Cc3cnc(COc4ccc(Cl)cc4Cl)o3)CC2)nc2ccc(C(=O)O)nc21 [Compound 125, 2-{[4-({2-[(2,4-dichlorophenoxy)methyl]-1,3-oxazol-5-yl}methyl)piperidin-1-yl]methyl}-3-[(1-ethyl-1H-imidazol-5-yl)methyl]-3H-imidazol[4,5-b]pyridine-5-carboxylic acid]",< 50
14,"CCn1cncc1Cn1c(CN2CCC(Oc3cccc(COc4ccc(Cl)cc4F)n3)CC2)nc2ccc(C(=O)O)cc21 [Compound 247, 2-{[4-({6-[(4-chloro-2-fluorophenoxy)methyl]pyridin-2-yl}oxy)piperidin-1-yl]methyl}-1-[(1-ethyl-1H-imidazol-5-yl)methyl]-1H-1,3-benzodiazole-6-carboxylic acid]",< 50
15,"CCn1cncc1Cn1c(CN2CCC(Oc3cnc(COc4ccc(Cl)cc4Cl)o3)CC2)nc2ccc(C(=O)O)cc21 [Compound 214, 2-{[4-({2-[(2,4-dichlorophenoxy)methyl]-1,3-oxazol-5-yl}oxy)piperidin-1-yl]methyl}-1-[(1-ethyl-1H-imidazol-5-yl)methyl]-1H-1,3-benzodiazole-6-carboxylic acid]",< 50
16,N#CCC1(Cn2c(CN3CCC(Oc4ccnc(COc5ccc(C(F)F)cc5F)c4)CC3)nc3ccc(C(=O)O)cc32)CC1 [Compound 362],< 50
17,C[C@H]1C[C@@H](Oc2ccnc(COc3ccc(C#N)cc3Cl)c2)CCN1Cc1nc2ccc(C(=O)O)cc2n1C[C@@H]1CCO1 [Compound 366],< 50

# Second part, the compound after the results:
row,EC50 [nM],Structure (SMILES)
1,< 50,"N#Cc1ccc(OCc2nccc(O[C@H]3CCN(Cc4nc5ccc(C(=O)O)cc5n4C[C@@H]4CCO4)[C@@H](CF)C3)n2)c(F)c1 [Example 490, 2-(((2R,4S)-4-((2-((4-Cyano-2-fluorophenoxy)methyl)pyrimidin-4-yl)oxy)-2-(fluoromethyl)piperidin-1-yl)methyl)-1-(((S)-oxetan-2-yl)methyl)-1H-benzo[d]imidazole-6-carboxylic acid]"
2,< 50,"N#Cc1ccc(COc2cccc(C3CCN(C(=O)c4ccc(-c5nnn[nH]5)nc4)CC3)n2)c(F)c1 [Example 83, 4-(((6-(1-(6-(1H-Tetrazol-5-yl)nicotinoyl)piperidin-4-yl)pyridin-2-yl)oxy)methyl)-3-fluorobenzonitrile]"
3,< 50,"O=C(O)c1ccc2nc(CN3CCC(Oc4cccc(COc5ccc(Cl)cc5Cl)c4)CC3)n(Cc3cnco3)c2c1 [Example 216, 2-((4-(3-((2,4-Dichlorophenoxy)methyl)phenoxy)piperidin-1-yl)methyl)-1-(oxazol-5-ylmethyl)-1H-benzo[d]imidazole-6-carboxylic acid]"
4,< 50,"N#Cc1ccc(OCc2cc(OC3CCN(Cc4nc5ccc(C(=O)O)cc5n4C[C@@H]4CCO4)CC3)cnn2)c(F)c1 [Compound 491, 2-{[4-({6-[(4-cyano-2-fluorophenoxy)methyl]pyridazin-4-yl}oxy)piperidin-1-yl]methyl}-1-{[(2S)-oxetan-2-yl]methyl}-1H-1,3-benzodiazole-6-carboxylic acid]"
5,< 50,"O=C(O)c1ccc2nc(CN3CCC(Oc4cccc(COc5ccc(Cl)cc5Cl)n4)CC3)n(C[C@@H]3CCO3)c2c1 [Example 198, (S)-2-((4-((6-((2,4-Dichlorophenoxy)methyl)pyridin-2-yl)oxy)piperidin-1-yl)methyl)-1-(oxetan-2-ylmethyl)-1H-benzo[d]imidazole-6-carboxylic acid]"
6,50 to 500,"O=C(O)c1ccc2nc(CN3CCC(Cc4cnc(COc5cnc(C6CC6)cc5Cl)o4)CC3)n(C[C@@H]3CCO3)c2c1 [Example 154, (S)-2-((4-((2-(((4-Chloro-6-cyclopropylpyridin-3-yl)oxy)methyl)oxazol-5-yl)methyl)piperidin-1-yl)methyl)-1-(oxetan-2-ylmethyl)-1H-benzo[d]imidazole-6-carboxylic acid]"
7,< 50,"C[C@H]1C[C@@H](Oc2ccnc(COc3ccc(C#N)cc3F)c2)CCN1Cc1nc2c(F)cc(C(=O)O)cc2n1C[C@@H]1CCO1 [Compound 501, 2-{[(2S,4S)-4-({2-[(4-cyano-2-fluorophenoxy)methyl]pyridin-4-yl}oxy)-2-methylpiperidin-1-yl]methyl}-4-fluoro-1-{[(2S)-oxetan-2-yl]methyl}-1H-1,3-benzodiazole-6-carboxylic acid]"
8,< 50,"Cc1ccc(Oc2cc(C(=O)N3CCN(Cc4nc5ccc(C(=O)O)cc5n4C[C@@H]4CCO4)CC3)ncn2)cc1 [Example 34, (S)-1-(Oxetan-2-ylmethyl)-2-((4-(6-(p-tolyloxy)pyrimidine-4-carbonyl)piperazin-1-yl)methyl)-1H-benzo[d]imidazole-6-carboxylic acid]"
9,50 to 500,"Cc1c(Cl)cccc1OCc1ccc(C(=O)N2CCN(Cc3nc4ccc(C(=O)O)cc4n3C[C@@H]3CCO3)CC2)o1 [Example 19, (S)-2-((4-(5-((3-Chloro-2-methylphenoxy)methyl)furan-2-carbonyl)piperazin-1-yl)methyl)-1-(oxetan-2-ylmethyl)-1H-benzo[d]imidazole-6-carboxylic acid]"
10,> 500,"C[C@@H](Oc1ccc(Cl)cc1Cl)c1ccc(C(=O)N2CCN(Cc3nc4ccc(C(=O)O)cc4n3C[C@@H]3CCO3)CC2)o1 (relative stereo) [Example 94, 2-((4-(5-((R)-1-(2,4-dichlorophenoxy)ethyl)furan-2-carbonyl)piperazin-1-yl)methyl)-1-(((S)-oxetan-2-yl)methyl)-1H-benzo[d]imidazole-6-carboxylic acid]"
11,< 50,"Cc1cc(C(=O)O)cc2c1nc(CN1CC[C@H](Oc3ccnc(COc4ccc(C#N)cc4F)c3)C[C@@H]1C)n2C[C@@H]1CCO1 [Compound 503, 2-{[(2S,4S)-4-({2-[(4-cyano-2-fluorophenoxy)methyl]pyridin-4-yl}oxy)-2-methylpiperidin-1-yl]methyl}-4-methyl-1-{[(2S)-oxetan-2-yl]methyl}-1H-1,3-benzodiazole-6-carboxylic acid]"
